Patent publication US20260374792A1, “PHENYL-FREE BISCATIONIC QUATERNARY PHOSPHONIUM COMPOUNDS AS ANTIMICROBIAL AGENTS” (priority 2022, published 2026)

tested on: MSSA (SH1000); experiment: MIC against methicillin-susceptible S. aureus (MSSA); type: cell-based; conditions: Staphylococcus aureus; MSSA (SH1000); 72 hours, 37 °C; read-out: MIC
Procedure: (§1) The term “minimum inhibitory concentration (MIC)” means the lowest concentration of an antimicrobial agent that will inhibit the visible growth of a microorganism after overnight incubation. MIC values against bacteria, for example, the Gram-positive Staphylococcus aureus and Enterococcus faecalis and the Gram-negative Escherichia coli and Pseudomonas aeruginosa were determined by standard methods. See also P. A. Wayne, Methods for Dilution Antimicrobial Tests for Bacteria that Grow Aerobically; Approved Standard, Ninth Edition, 2012, CLSI Document M07-A9, Vol. 32 No. 2.
(§2) Biological testing procedures were adapted from prior work by Melander and coworkers. For all biological assays, laboratory strains of methicillin-susceptible Staphylococcus aureus MSSA (SH1000), Staphylococcus aureus CA-MRSA (USA300-0114), Staphylococcus aureus HA-MRSA (ATCC 33591), Escherichia coli (MC4100), Enterococcus faecalis (OG1RF), Acinetobacter baumannii (ATCC 17978), were grown with shaking at 37 °C overnight from freezer stocks in 5 mL of the indicated media: SH1000, OG1RF, MC4100, USA300-0114, and ATCC 17978 were grown in BDTM Mueller-Hinton broth (MHB), whereas ATCC 33591 was grown in BDTM tryptic soy broth (TSB). The inoculum were then streaked onto Mueller-Hinton agar (MHA) plates and grown overnight at 37 °C. From the plates, single colonies were selected, diluted into 50 mL of fresh media and grown overnight at 37 °C with shaking for use in the MIC assays. Optical density (OD) measurements were obtained using a SpectraMax iD3 plate reader (Molecular Devices, United States).
(§3) Compounds were serially diluted two-fold from stock solutions (1.0 mM) to yield twelve 100 μL test concentrations, wherein the starting concentration of dimethyl sulfoxide (DMSO) was 2.5%. Overnight S. aureus, E. faecalis, E. coli, A. baumannii, USA300-0114 (CA-MRSA), and ATCC 33591 (HA-MRSA) cultures were diluted to ca. 10^6 CFU/mL in MHB or TSB and regrown to mid-exponential phase, as determined by optical density recorded at 600 nm (OD600). All cultures were then diluted again to ca. 10^6 CFU/mL and 100 μL were inoculated into each well of a U-bottom 96-well plate (Corning, 351177) containing 100 μL of compound solution. Plates were incubated statically at 37 °C for 72 hours upon which wells were evaluated visually for bacterial growth. The MIC was determined as the lowest concentration of compound resulting in no bacterial growth visible to the naked eye, based on the highest value in three independent experiments. Aqueous DMSO controls were conducted as appropriate for each compound.
(§4) The prepared library of biscationic amphiphilic compounds was assessed for performance as antibacterial disinfectants by determining the minimum inhibitory concentration (MIC) for each against a panel of bacteria. The bacteria selected for the study were chosen to evaluate the broad spectrum antimicrobial performance of the QPCs, and therefore, included both Gram-positive and Gram-negative bacterial strains, including those with known antimicrobial resistance mechanisms. These bacteria include the Gram-positive strains of methicillin-susceptible Staphylococcus aureus [MSSA; SH1000], community-acquired methicillin-resistant Staphylococcus aureus [CA-MRSA; USA 300-0114], hospital-acquired methicillin-resistant Staphylococcus aureus [HA-MRSA; ATCC 33591] and the […], Escherichia coli [MC4100], Acinetobacter baumannii [ATCC 17498] and Pseudomonas aeruginosa [PAO1].

Point of comparison: CCCCCCCC[P+](C)(C)CC[P+](C)(C)CCCCCCCC [^MeP2P-8,8], MIC 125 µM. Against it:
- CCCCCCCCCCC[P+](CC)(CC)CC[P+](CC)(CC)CCCCCCCCCCC [^EtP2P-11,11] — 120-fold lower, 1 µM
- CCCCCCCCCCCCCC[P+](CC)(CC)CC[P+](CC)(CC)CCCCCCCCCCCCCC [^EtP2P-14,14] — 16-fold lower, 8 µM
- CCCCCCCCC[P+](C)(C)CC[P+](C)(C)CCCCCCCCC [^MeP2P-9,9] — 16-fold lower, 8 µM

tested on: CA-MRSA (USA300-0114); experiment: MIC against community-acquired methicillin-resistant S. aureus (CA-MRSA); type: cell-based; conditions: Staphylococcus aureus, 72 h
Procedure: as §1, §2, §3, §4

Point of comparison: CCCCCCCCCCCCCC[P+](CC)(CC)CC[P+](CC)(CC)CCCCCCCCCCCCCC [^EtP2P-14,14], MIC 4 µM. Against it:
- CCCCCCCCCCC[P+](CC)(CC)CC[P+](CC)(CC)CCCCCCCCCCC [^EtP2P-11,11] — 4-fold lower, 1 µM
- CCCCCCCC[P+](C)(C)CC[P+](C)(C)CCCCCCCC [^MeP2P-8,8] — 31-fold higher, 125 µM
- CCCCCCCCC[P+](C)(C)CC[P+](C)(C)CCCCCCCCC [^MeP2P-9,9] — 2-fold higher, 8 µM

tested on: HA-MRSA (ATCC 33591); experiment: MIC against hospital-acquired methicillin-resistant S. aureus (HA-MRSA); type: cell-based; conditions: Staphylococcus aureus, 72 h
Procedure: as §1, §2, §3, §4

Point of comparison: CCCCCCCC[P+](C)(C)CC[P+](C)(C)CCCCCCCC [^MeP2P-8,8], MIC 250 µM. Against it:
- CCCCCCCCCCC[P+](CC)(CC)CC[P+](CC)(CC)CCCCCCCCCCC [^EtP2P-11,11] — 120-fold lower, 2 µM
- CCCCCCCCCCCCCC[P+](CC)(CC)CC[P+](CC)(CC)CCCCCCCCCCCCCC [^EtP2P-14,14] — 62-fold lower, 4 µM
- CCCCCCCCC[P+](C)(C)CC[P+](C)(C)CCCCCCCCC [^MeP2P-9,9] — 16-fold lower, 16 µM

tested on: E. faecalis (OG1RF); experiment: MIC against E. faecalis; type: cell-based; conditions: Enterococcus faecalis, 72 h
Procedure: as §1, §2, §3, §4

Point of comparison: CCCCCCCCCCCCCC[P+](CC)(CC)CC[P+](CC)(CC)CCCCCCCCCCCCCC [^EtP2P-14,14], MIC 63 µM. Against it:
- CCCCCCCCCCC[P+](CC)(CC)CC[P+](CC)(CC)CCCCCCCCCCC [^EtP2P-11,11] — 16-fold lower, 4 µM
- CCCCCCCC[P+](C)(C)CC[P+](C)(C)CCCCCCCC [^MeP2P-8,8] — higher, > 250 µM
- CCCCCCCCC[P+](C)(C)CC[P+](C)(C)CCCCCCCCC [^MeP2P-9,9] — 2-fold higher, 125 µM

tested on: E. coli (MC4100); experiment: MIC against E. coli; type: cell-based; conditions: Escherichia coli, 72 hours, 37 °C
Procedure: as §1, §2, §3, §4

Point of comparison: CCCCCCCCC[P+](C)(C)CC[P+](C)(C)CCCCCCCCC [^MeP2P-9,9], MIC 125 µM. Against it:
- CCCCCCCCCCC[P+](CC)(CC)CC[P+](CC)(CC)CCCCCCCCCCC [^EtP2P-11,11] — 31-fold lower, 4 µM
- CCCCCCCCCCCCCC[P+](CC)(CC)CC[P+](CC)(CC)CCCCCCCCCCCCCC [^EtP2P-14,14] — 16-fold lower, 8 µM
- CCCCCCCC[P+](C)(C)CC[P+](C)(C)CCCCCCCC [^MeP2P-8,8] — higher, > 250 µM

tested on: A. baumannii; experiment: MIC against A. baumannii; type: cell-based; conditions: Acinetobacter baumannii, 72 h
Procedure: as §1, §2, §3, §4

Point of comparison: CCCCCCCCCCCCCC[P+](CC)(CC)CC[P+](CC)(CC)CCCCCCCCCCCCCC [^EtP2P-14,14], MIC 32 µM. Against it:
- CCCCCCCCCCC[P+](CC)(CC)CC[P+](CC)(CC)CCCCCCCCCCC [^EtP2P-11,11] — 4-fold lower, 8 µM
- CCCCCCCC[P+](C)(C)CC[P+](C)(C)CCCCCCCC [^MeP2P-8,8] — higher, > 250 µM
- CCCCCCCCC[P+](C)(C)CC[P+](C)(C)CCCCCCCCC [^MeP2P-9,9] — 7.8-fold higher, 250 µM

tested on: P. aeruginosa (PAO1); experiment: MIC against P. aeruginosa; type: cell-based; conditions: Pseudomonas aeruginosa; P. aeruginosa (PAO1); 72 hours, 37 °C; read-out: MIC
Procedure: as §1, §2, §3, §4

Point of comparison: CCCCCCCCCCCCCC[P+](CC)(CC)CC[P+](CC)(CC)CCCCCCCCCCCCCC [^EtP2P-14,14], MIC 63 µM. Against it:
- CCCCCCCCCCC[P+](CC)(CC)CC[P+](CC)(CC)CCCCCCCCCCC [^EtP2P-11,11] — 3.9-fold lower, 16 µM
- CCCCCCCC[P+](C)(C)CC[P+](C)(C)CCCCCCCC [^MeP2P-8,8] — higher, > 250 µM
- CCCCCCCCC[P+](C)(C)CC[P+](C)(C)CCCCCCCCC [^MeP2P-9,9] — higher, > 250 µM

tested on: red blood cells; experiment: Red Blood Cell (RBC) Lysis Assay (lysis20); type: cell-based, sheep; conditions: concentration inducing 20% RBC lysis; sheep blood, 1 hour, 37 °C
Procedure: RBC lysis assays were performed on mechanically defibrinated sheep blood (Hemostat Labs: DSB030). An aliquot of 1.5 mL blood was placed into a microcentrifuge tube and centrifuged at 3,800 rpm for ten minutes. The supernatant was removed, and the cells were resuspended with 1 mL of phosphate-buffered saline (PBS). The suspension was centrifuged as described above, the supernatant was removed, and cells were resuspended 4 additional times in 1 mL PBS. The final cell suspension was diluted twentyfold with PBS. Compounds were serially diluted with PBS two-fold from stock solutions (1.0 mM) to yield 100 μL of twelve test concentrations on a flat-bottom 96-well plate (Corning, 351172), wherein the starting concentration of DMSO was 2.5%. To each of the wells, 100 μL of the twentyfold suspension dilution was then inoculated. TritonX (1% by volume) served as a positive control (100% lysis marker) and sterile PBS served as a negative control (0% lysis marker). Samples were then placed in an incubator at 37 °C and shaken at 200 rpm. After 1 hour, the samples were centrifuged at 3,800 rpm for ten minutes. The absorbance of the supernatant was measured with a UV spectrometer at a 540 nm wavelength. The concentration inducing 20% RBC lysis was then calculated for each compound based upon the absorbances of the TritonX and PBS controls. Aqueous DMSO controls were conducted as appropriate for each compound.
The potential cytotoxicity of the compounds was also considered with the evaluation of hemolysis (lysis20) assays with 20% lysis of red blood cells serving as an indicator of potentially toxic compounds. Finally, the bioactivity of these compounds were benchmarked against a commercial benzalkonium chloride source (BAC; 70% benzyldimethyldodecylammonium chloride, and 30% benzyldimethyltetradecylammonium chloride) as well as some previously reported disinfectant compounds from the inventors' groups; included were bisQPC ^PhP6P-10,10 as well as ^PhP2P-10,10 and 12(2)12. A detailed description of the experimental procedures used to evaluate bioactivity and hemolysis assays are described above.

Point of comparison: CCCCCCCC[P+](C)(C)CC[P+](C)(C)CCCCCCCC [^MeP2P-8,8], Lysis20 250 µM. Against it:
- CCCCCCCCCCC[P+](CC)(CC)CC[P+](CC)(CC)CCCCCCCCCCC [^EtP2P-11,11] — 16-fold lower, 16 µM
- CCCCCCCCCCCCCC[P+](CC)(CC)CC[P+](CC)(CC)CCCCCCCCCCCCCC [^EtP2P-14,14] — 31-fold lower, 8 µM
- CCCCCCCCC[P+](C)(C)CC[P+](C)(C)CCCCCCCCC [^MeP2P-9,9] — the same, 250 µM
